The values that follow come from ChEMBL document CHEMBL1142268, “Histone deacetylase inhibitors: from bench to clinic” (J Med Chem, 2008).

SMILES strings stand for the structures.

Tested on in the first data set: not listed separately
Put plainly: Inhibition of human CCD1059SK cells. It counts as functional, cell-based.
Details: not given
For the molecule `Nc1ccccc1NC(=O)c1ccc(CN(CCO)Cc2ccc(F)c(F)c2)cc1`, it took 94.8 µM to reach half-maximal inhibition (IC50).

Take `Nc1ccccc1NC(=O)c1ccc(CN(CCO)Cc2ccccc2)cc1`: the IC50 came to 19.4 µM.

The molecule `Cn1cc(CN(CCO)Cc2ccc(C(=O)Nc3ccccc3N)cc2)c2ccccc21` showed an IC50 of 28.3 µM.

As for `Nc1ccccc1NC(=O)c1ccc(CN(CCO)Cc2ccc3c(c2)OCO3)cc1`, the midpoint of inhibition, the IC50, lay at 41.7 µM.

Consider `COc1ccc(CN(CCO)Cc2ccc(C(=O)Nc3ccccc3N)cc2)cc1`, for which the 50% inhibitory concentration (IC50) came out at 18.4 µM.

For another data set, the system named is NCI-H460. In words: Inhibition of human NCI-H460 cells.
Details: not given
It counts as functional, cell-based.
`CC(C)C(=O)SCCCCCCC(=O)Nc1ccccc1` registered a half-maximal effective concentration (EC50) of 20 µM.

Molecule `O=C(CCCCCCS)Nc1ccccc1` came in with an EC50 of more than 50 µM.

The target of a further data set is T1, Histone deacetylase 1 (Homo sapiens, UniProt Q13547). Put plainly: Inhibition of HDAC1 from human HeLa cells. It counts as cell-based.
T1 sequence (Q13547 whole entry): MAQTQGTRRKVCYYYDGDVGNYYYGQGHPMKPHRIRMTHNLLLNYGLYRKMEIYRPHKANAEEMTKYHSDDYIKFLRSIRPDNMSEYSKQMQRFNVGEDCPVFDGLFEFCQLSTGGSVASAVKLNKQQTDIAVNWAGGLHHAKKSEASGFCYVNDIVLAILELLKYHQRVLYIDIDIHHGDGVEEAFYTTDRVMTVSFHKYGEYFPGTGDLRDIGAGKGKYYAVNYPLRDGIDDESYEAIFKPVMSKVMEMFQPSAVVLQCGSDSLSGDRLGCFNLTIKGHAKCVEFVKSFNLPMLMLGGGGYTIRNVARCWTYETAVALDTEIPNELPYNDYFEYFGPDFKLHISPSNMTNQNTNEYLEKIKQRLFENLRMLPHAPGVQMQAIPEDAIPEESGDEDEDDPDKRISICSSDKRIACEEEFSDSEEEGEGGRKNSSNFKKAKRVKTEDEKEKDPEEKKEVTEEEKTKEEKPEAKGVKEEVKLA
Details: not given
On to `COc1ccc2[nH]c(C)c(CC(=O)N[C@@H](CCCCCC(C)=O)C(=O)NCCc3c(-c4ccccc4)[nH]c4ccccc34)c2c1`, for which the midpoint of inhibition, the IC50, lay at 0.73 µM.

The target of another data set is Histone deacetylase (Homo sapiens) (UniProt Q13547+O15379+Q9UBN7+Q92769+Q9UQL6+Q8WUI4+Q9BY41+Q96DB2+P56524+Q9UKV0+Q969S8). In words: Inhibition of HDAC from human HeLa cells at 1000 nM. The class given is cell-based.
Details: not given
`O=C(/C=C/c1cccc(NS(=O)(=O)Cc2ccccc2)c1)NO`: the inhibition is 23%.

The target of another data set is T2, Protein deacetylase HDAC6 (Homo sapiens, UniProt Q9UBN7).
T2 sequence (Q9UBN7 whole entry): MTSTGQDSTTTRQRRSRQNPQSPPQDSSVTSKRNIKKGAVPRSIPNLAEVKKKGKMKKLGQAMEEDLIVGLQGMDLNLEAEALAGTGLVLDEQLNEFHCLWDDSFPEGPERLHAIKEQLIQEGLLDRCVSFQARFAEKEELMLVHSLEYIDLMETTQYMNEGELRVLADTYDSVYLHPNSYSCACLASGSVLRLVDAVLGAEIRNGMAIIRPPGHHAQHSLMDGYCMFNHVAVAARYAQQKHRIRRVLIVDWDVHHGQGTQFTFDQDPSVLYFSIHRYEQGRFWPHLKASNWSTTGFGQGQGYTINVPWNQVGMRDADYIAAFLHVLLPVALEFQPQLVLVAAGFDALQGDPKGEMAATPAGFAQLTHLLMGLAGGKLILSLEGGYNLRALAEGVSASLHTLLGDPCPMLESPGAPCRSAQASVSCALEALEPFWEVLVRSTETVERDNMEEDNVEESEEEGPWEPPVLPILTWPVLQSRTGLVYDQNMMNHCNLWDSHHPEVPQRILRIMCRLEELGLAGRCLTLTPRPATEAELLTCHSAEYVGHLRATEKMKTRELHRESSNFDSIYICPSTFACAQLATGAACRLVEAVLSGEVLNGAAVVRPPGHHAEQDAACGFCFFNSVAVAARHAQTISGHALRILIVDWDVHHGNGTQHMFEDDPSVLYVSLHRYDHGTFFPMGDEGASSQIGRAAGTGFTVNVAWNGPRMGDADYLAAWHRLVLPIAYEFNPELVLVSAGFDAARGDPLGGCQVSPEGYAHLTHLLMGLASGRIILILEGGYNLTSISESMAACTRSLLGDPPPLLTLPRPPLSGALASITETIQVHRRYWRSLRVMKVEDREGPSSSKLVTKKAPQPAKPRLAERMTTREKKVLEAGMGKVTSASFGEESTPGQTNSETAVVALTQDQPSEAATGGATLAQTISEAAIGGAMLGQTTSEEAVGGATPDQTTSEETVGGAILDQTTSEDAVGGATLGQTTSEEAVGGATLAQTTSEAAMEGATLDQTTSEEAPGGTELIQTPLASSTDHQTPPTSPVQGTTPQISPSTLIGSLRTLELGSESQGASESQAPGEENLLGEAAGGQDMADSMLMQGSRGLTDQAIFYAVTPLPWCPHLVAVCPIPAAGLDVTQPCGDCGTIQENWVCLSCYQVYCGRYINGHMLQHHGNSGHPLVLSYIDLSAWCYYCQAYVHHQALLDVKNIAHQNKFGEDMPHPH
Assay: not given
Details: not given
Turning to `O=C(/C=C/c1ccc(CN(CCO)CCc2cc3ccccc3[nH]2)cc1)NO`, half-maximal inhibition (IC50) was put at 0.015 µM.

The next data set addresses Histone deacetylase. Put plainly: Inhibition of HDAC from human HeLa cells. The class given is cell-based.
Details: not given
The molecule `CSCC(=O)CCCCCCC(=O)Nc1ccccc1` registered a 50% inhibitory concentration (IC50) of more than 40 µM.

For the molecule `CN(C)c1ccc(CNC(=O)NCCCCC(=O)NO)cc1`, the half-maximal inhibitory concentration (IC50) came out at 0.8 µM.

`CN(C)c1ccc(CNC(=O)NCCCCCCCC(=O)NO)cc1` came in with an IC50 of 0.7 µM.

`O=C(CO)NCCCCCC(=O)Nc1ccccc1`: the IC50 was more than 40 µM.

`CC(=O)SCC(=O)CCCCCCC(=O)Nc1ccccc1` gave an IC50 of 0.081 µM.

`CN(C)c1ccc(CNC(=O)NCCCCCC(=O)NO)cc1` came in with an IC50 of 0.8 µM.

`O=C(CCCCCNC(=S)CS)Nc1ccccc1` showed a concentration for half-maximal inhibition (IC50) of 13.3 µM.

`CC(=O)SCC(=O)NCCCCCC(=O)Nc1ccccc1` gave an IC50 of 20.1 µM.

Take `CN(C)c1ccc(NC(=O)NCCCCCCC(=O)NO)cc1`: the IC50 was found to be 0.7 µM.

Tested on in a further data set: not listed separately
In words: Metabolic stability in human liver microsomes. The class given is ADME, Microsome.
Details: not given
Regarding `COc1ccc2[nH]c(C)c(CC(=O)N[C@@H](CCCCCC(C)=O)C(=O)NCCc3c(-c4ccccc4)[nH]c4ccccc34)c2c1`, the intrinsic metabolic clearance (microsomal CLint) was more than 300 µL/min/mg.

In another data set the test system is SK-BR-3. Put plainly: Antiproliferative activity against human SKBR3 cells.
Details: not given
The class given is functional, cell-based.
`Nc1ccccc1NC(=O)c1ccc(CN(CCO)Cc2ccc(F)c(F)c2)cc1` registered a concentration for half-maximal inhibition (IC50) of 3.6 µM.

Consider `Nc1ccccc1NC(=O)c1ccc(CN(CCO)Cc2ccccc2)cc1`, for which 3.9 µM corresponded to half-maximal inhibition (IC50).

Molecule `Cn1cc(CN(CCO)Cc2ccc(C(=O)Nc3ccccc3N)cc2)c2ccccc21` had a half-maximal inhibitory concentration (IC50) of 6.9 µM.

`Nc1ccccc1NC(=O)c1ccc(CN(CCO)Cc2ccc3c(c2)OCO3)cc1` displayed a 50% inhibitory concentration (IC50) of 3.5 µM.

`COc1ccc(CN(CCO)Cc2ccc(C(=O)Nc3ccccc3N)cc2)cc1` came in with an IC50 of 3.4 µM.

The test system of the next data set is HCT-116. Put plainly: Inhibition of human HCT116 cells.
Details: not given
The class given is functional, cell-based.
As for `Nc1ccccc1NC(=O)c1ccc(CN(CCO)Cc2ccc(F)c(F)c2)cc1`, 0.8 µM corresponded to half-maximal inhibition (IC50).

Molecule `Nc1ccccc1NC(=O)c1ccc(CN(CCO)Cc2ccccc2)cc1` came in with an IC50 of 0.9 µM.

For the molecule `Cn1cc(CN(CCO)Cc2ccc(C(=O)Nc3ccccc3N)cc2)c2ccccc21`, inhibition was half-maximal at 5.7 µM (IC50).

Take `Nc1ccccc1NC(=O)c1ccc(CN(CCO)Cc2ccc3c(c2)OCO3)cc1`: the IC50 was 0.8 µM.

Take `COc1ccc(CN(CCO)Cc2ccc(C(=O)Nc3ccccc3N)cc2)cc1`: the IC50 came out at 0.8 µM.

In another data set the target is T3, Histone deacetylase 8 (Homo sapiens, UniProt Q9BY41).
T3 sequence (Q9BY41 whole entry): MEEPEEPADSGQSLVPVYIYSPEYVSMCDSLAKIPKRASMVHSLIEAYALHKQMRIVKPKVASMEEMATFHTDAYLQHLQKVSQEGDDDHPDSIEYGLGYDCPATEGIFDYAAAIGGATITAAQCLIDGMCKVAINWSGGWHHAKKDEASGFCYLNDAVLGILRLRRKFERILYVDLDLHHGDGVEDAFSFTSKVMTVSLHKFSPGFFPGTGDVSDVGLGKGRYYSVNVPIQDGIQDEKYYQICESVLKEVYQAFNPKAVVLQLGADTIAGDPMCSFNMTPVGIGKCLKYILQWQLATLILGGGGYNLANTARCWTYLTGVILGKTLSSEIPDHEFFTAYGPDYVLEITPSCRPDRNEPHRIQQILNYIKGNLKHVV
Assay: not given
Details: not given
Take `CSCC(=O)CCCCCCC(=O)Nc1ccccc1`: the half-maximal inhibitory concentration (IC50) was more than 40 µM.

In turn, `O=C(CO)NCCCCCC(=O)Nc1ccccc1` registered a concentration for half-maximal inhibition (IC50) of more than 40 µM.

Molecule `CC(=O)SCC(=O)CCCCCCC(=O)Nc1ccccc1` came in with an IC50 of 0.19 µM.

`O=C(CCCCCNC(=S)CS)Nc1ccccc1` returned an IC50 of more than 40 µM.

`CC(=O)SCC(=O)NCCCCCC(=O)Nc1ccccc1`: the IC50 is more than 40 µM.

For a further data set, the system named is A549. In words: cells. To be noted: Homo sapiens.
Description: Antiproliferative activity against human A549 cells
In turn, `Nc1ccccc1NC(=O)c1ccc(CN(CCO)Cc2ccc(F)c(F)c2)cc1` had an IC50 of 24.2 µM.

For the molecule `Nc1ccccc1NC(=O)c1ccc(CN(CCO)Cc2ccccc2)cc1`, the IC50 was found to be 20.5 µM.

Molecule `Cn1cc(CN(CCO)Cc2ccc(C(=O)Nc3ccccc3N)cc2)c2ccccc21` registered a 50% inhibitory concentration (IC50) of 20.8 µM.

`Nc1ccccc1NC(=O)c1ccc(CN(CCO)Cc2ccc3c(c2)OCO3)cc1` showed a half-maximal inhibitory concentration (IC50) of 20 µM.

In turn, `COc1ccc(CN(CCO)Cc2ccc(C(=O)Nc3ccccc3N)cc2)cc1` had an IC50 of 17.3 µM.

The target in the next data set is T3, Histone deacetylase 8.
Assay: not given
Details: not given
This is another data set of the same source.
Molecule `O=C(/C=C/c1ccc(CN(CCO)CCc2cc3ccccc3[nH]2)cc1)NO` registered a 50% inhibitory concentration (IC50) of 0.14 µM.

The subject of a further data set is SW-620. In words: Inhibition of human SW620 cells. It counts as functional, cell-based.
Details: not given
Turning to `Nc1ccccc1NC(=O)c1ccc(CN(CCO)Cc2ccc(F)c(F)c2)cc1`, the midpoint of inhibition, the IC50, lay at 3.6 µM.

The molecule `Nc1ccccc1NC(=O)c1ccc(CN(CCO)Cc2ccccc2)cc1` showed a concentration for half-maximal inhibition (IC50) of 3.3 µM.

Consider `Cn1cc(CN(CCO)Cc2ccc(C(=O)Nc3ccccc3N)cc2)c2ccccc21`, for which it took 4.5 µM to reach half-maximal inhibition (IC50).

Turning to `Nc1ccccc1NC(=O)c1ccc(CN(CCO)Cc2ccc3c(c2)OCO3)cc1`, the concentration for half-maximal inhibition (IC50) was 2.2 µM.

With `COc1ccc(CN(CCO)Cc2ccc(C(=O)Nc3ccccc3N)cc2)cc1`, the IC50 amounted to 2.1 µM.

The next data set relates to SQ20B. Put plainly: Inhibition of human SQ20B cells. It counts as functional, cell-based.
Details: not given
`CN(C)c1ccc(CNC(=O)NCCCCC(=O)NO)cc1` had an IC50 of 50 µM.

`CN(C)c1ccc(CNC(=O)NCCCCCCCC(=O)NO)cc1` came in with an IC50 of 50 µM.

`CN(C)c1ccc(CNC(=O)NCCCCCC(=O)NO)cc1`: half-maximal inhibition (IC50) required 25 µM.

Molecule `CN(C)c1ccc(NC(=O)NCCCCCCC(=O)NO)cc1` displayed an IC50 of 10 µM.

In a further data set the target is T1, Histone deacetylase 1.
Assay: not given
Details: not given
`O=C(/C=C/c1ccc(CN(CCO)CCc2cc3ccccc3[nH]2)cc1)NO` showed a concentration for half-maximal inhibition (IC50) of 0.0018 µM.

The subject of the next data set is MCF7. In words: Inhibition of human MCF7 cells.
Details: not given
The class given is functional, cell-based.
`Nc1ccccc1NC(=O)c1ccc(CN(CCO)Cc2ccc(F)c(F)c2)cc1` displayed a concentration for half-maximal inhibition (IC50) of 10.4 µM.

Take `Nc1ccccc1NC(=O)c1ccc(CN(CCO)Cc2ccccc2)cc1`: 10 µM corresponded to half-maximal inhibition (IC50).

For `Cn1cc(CN(CCO)Cc2ccc(C(=O)Nc3ccccc3N)cc2)c2ccccc21`, the 50% inhibitory concentration (IC50) is 8.4 µM.

The molecule `Nc1ccccc1NC(=O)c1ccc(CN(CCO)Cc2ccc3c(c2)OCO3)cc1` returned a concentration for half-maximal inhibition (IC50) of 3.8 µM.

`COc1ccc(CN(CCO)Cc2ccc(C(=O)Nc3ccccc3N)cc2)cc1` returned an IC50 of 4.9 µM.

The next data set deals with Histone deacetylase 3 (Homo sapiens, UniProt O15379).
Sequence of Histone deacetylase 3 (O15379 whole entry): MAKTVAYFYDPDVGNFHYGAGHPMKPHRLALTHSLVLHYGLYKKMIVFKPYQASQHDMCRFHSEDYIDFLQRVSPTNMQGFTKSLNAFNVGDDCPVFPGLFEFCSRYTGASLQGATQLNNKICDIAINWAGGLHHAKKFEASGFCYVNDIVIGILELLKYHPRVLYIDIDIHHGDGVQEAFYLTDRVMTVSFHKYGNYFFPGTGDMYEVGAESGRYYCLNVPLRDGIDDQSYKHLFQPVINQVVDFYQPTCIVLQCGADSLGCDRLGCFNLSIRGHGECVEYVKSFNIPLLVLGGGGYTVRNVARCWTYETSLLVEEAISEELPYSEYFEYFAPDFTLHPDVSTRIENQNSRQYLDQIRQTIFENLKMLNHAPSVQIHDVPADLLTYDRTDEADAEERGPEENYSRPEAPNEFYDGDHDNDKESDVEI
Assay: not given
Details: not given
In the case of `O=C(/C=C/c1ccc(CN(CCO)CCc2cc3ccccc3[nH]2)cc1)NO`, the IC50 amounted to 0.0037 µM.
